According to EP4057003A1, “SELECTIVE SULFATE ANION DETECTION USING GUANYLATED FLUOROPHORES” (Universidad de Castilla la Mancha, priority 2021, dated 2022):

What was measured:
[1] = pH titration of aqueous solution, UV-Vis absorption and steady-state fluorescence (pH dependence, pKa); type: physicochemical
Experimental: For experiments in water, stock solutions (1 mM) of guanylated fluorophore (A) in ethanol were used. All aqueous solutions were prepared by diluting the stock solution in Milli-Q water to the desired concentration and filtered with 0.22 µm filters before use. For the pH titration experiments, aqueous solutions of guanylated fluorophore (A) (10 µM) were titrated by the successive addition of small volumes (in the order of microliters) of HCI and NaOH solutions of different concentrations (0.01-10 M) to an initial volume of 25 mL to minimize changes in the sample volume. UV-Vis absorption, SSF spectra were recorded.
UV-Vis absorption spectra of guanylated fluorophore (A) were recorded at room temperature using a Cary 100 (Varian) spectrophotometer using a slit width of 0.4 nm and a scan rate of 600 nm/min.
(§1) Steady-state fluorescence (SSF) spectra of the samples were recorded employing an FLS920 (Edinburgh Instruments) spectrofluorometer equipped with a MCP-PMT (microchannel plate-photomultiplier tube) detector (R3809 model) and a TCSPC (time-correlated single photon counting) data acquisition card (TCC900 model). A TLC 50 temperature-controlled cuvette holder (Quantum Northwest) was employed for the measurements (temperature was controlled at 296 K, which corresponds to 22.85 °C). A Xe lamp of 450 W was used as the light source for SSF spectra. […]

[2] = Association constant from fluorescence titration data, Scatchard plot method; type: binding
Experimental: (§2) For ion interaction experiments, an aqueous solution of guanylated fluorophore (A) (10 µM) was titrated with different salt solutions (CaCl2, KCI, NaCl, NaCH3COO, KSCN, Na2CO3, Na2SO3, SDS, Na2HPO4, Na3PO4, AgNO3, MgSO4, CuSO4, and NiSO4). Different concentrations of ions were tested from 0 to 100 µM and steady-state fluorescence (SSF) spectra were acquired. All measurements were performed using 10 mm quartz cuvette (Hellma Analytics).
Chem. Commun. (Cambridge, United Kingdom) 2003, 2 (6), 792-793. https://doi.org/10.1039/b300098b)by the following equation (i): [SO4^(2−)] = (1)/(nKa)(1)/([F]0^(n−1))(1−α)/(α^n) [formula] where; α is defined as the ratio between concentration of free fluorophore (e.g. [F] and initial [F]0 fluorophore concentration, e.g. for the guanylated fluorophore (A), and can be determined from the fluorescence difference at any titration stage; n is the stoichiometry to the studied complex Fn(SO4^2-)m.
The data of figure 5d of example 3 was fitted to equation (i) as shown in: • Figure 7a for the 1:1 complex of guanylated fluorophore (A) and sulfate anion (i.e., (A)(SO4^2-), complex A) • Figure 7b for the a 2:1 complex of guanylated fluorophore (A) and sulfate anion (i.e., (A)2(SO4^2-), complex B)

[3] = Ion recognition: fluorescence change on addition of salts in water
Experimental: […] Different concentrations of ions were tested from 0 to 100 µM and steady-state fluorescence (SSF) spectra were acquired. All measurements were performed using 10 mm quartz cuvette (Hellma Analytics).
as §1
Although the fluorescence intensity of guanylated fluorophore (A) was the same for most of the ions, the presence of sulfate anions (added to a concentration of 100 µM) caused -2-fold fluorescence quenching in guanylated fluorophore (A) (at a concentration of 10 µM) (Figure 5a). […] More importantly, for the same titration a gradual fluorescence decrease without any shift in the emission spectra was observed (see Figure 5c).
Figure 6b collects the fluorescence changes (%) of guanylated fluorophore (A) when successive quantities of 100 µM of anions are added over 5µM solution of A in water.

[4] = Anion selectivity, fluorescence decrease on addition of anion in water (Figure 6a); conditions: 100 µM anion
Experimental: as §2
The selectivity of guanylated fluorophore (A) was tested with different anions (Figure 6a). […] It is important to emphasize that the selectivity of guanylated fluorophore (A) was tested in water, where the presence of cations like Ca^2+, Ni^2+, K^+, Na^+ or Mg^2+ or anions like HPO4^2- NO^3- and Cl^- normally presented in this media will not affect the final recognition values. To evaluate the selectivity to sulfate anions, additional experiments were conducted on water complex samples containing high concentrations of such ions as interfering.

In the case of CC(C)NC(=Nc1ccc2c(c1)Cc1ccccc1-2)NC(C)C [guanylated fluorophore (A), 2-(9H-fluoren-2-yl)-1,3-diisopropylguanidine], the pKa ([1]; aqueous solution (Milli-Q water), water, from absorption spectra at different pH (A / AH^+ equilibrium)) is reported as 11.1, the “intensity of the fluorescence and the wavelength of emission” value ([1]; pH in the range of 5-12, λex 272 nm) is reported as “only mildly affected” and the Ka ([2]; 1:1 complex (A)(SO4^2-), complex A) is reported as 1.26x10^5. The Ka ([2]; 2:1 complex (A)2(SO4^2-), complex B) was 1.55x10^10, the “fluorescence changes (%) / emission intensity” value ([3]; successive additions of 100 µM of anions to 5 µM solution in water (Figure 6b)) was “exclusively decreases when sulfate anions are added” and the fluorescence quenching ([3]; sulfate anions 100 µM, fluorophore 10 µM, water) was -2 fold. The sensitivity ([4]; HPO4^2-) was “no sensitivity was found”, the sensitivity ([4]; PO4^3-) was “no sensitivity was found” and the sensitivity ([4]; SO3^2-) was “sensitivity was not observed”. For the same compound, the sensitivity ([4]; dodecyl sulfate (SDS)) was “sensitivity was not observed”.
